{"source": "paper PMC12932482", "about": "(Frontiers in Pharmacology, 2026)", "origin": "cited, not measured here", "details": "Obs, +CLA (with clarithromycin); ref Rengelshausen et al. (2003)", "data": [{"compound": "C[C@H]1O[C@@H](O[C@H]2[C@@H](O)C[C@H](O[C@H]3[C@@H](O)C[C@H](O[C@H]4CC[C@@]5(C)[C@H](CC[C@@H]6[C@@H]5C[C@@H](O)[C@]5(C)[C@@H](C7=CC(=O)OC7)CC[C@]65O)C4)O[C@@H]3C)O[C@@H]2C)C[C@H](O)[C@@H]1O", "note": "[digoxin]", "values": [{"measurement": "AUC0–3h", "value": 11, "unit": "ng·h/mL"}]}]}
